Here are results for seven molecules from patent publication EP0333028A1, “1-Substituted 4-pentafluorophenoxypiperidines, a process for their preparation and their use as medicaments” (HOECHST-ROUSSEL PHARMACEUTICALS INCORPORATED, priority 1988, dated 1989).

Type in all cases: in vivo
For assay [1], the system named is male mice (Charles River, CD-1). Description: tetrabenazine induced ptosis assay (TBZ). The conditions noted are these: Mus musculus, ip, 50% inhibition of tetrabenazine-induced ptosis, read-out: Antidepressant Activity TBZ ED₅₀. On the procedure: The compounds of this invention are also useful as antidepressants by virtue of their ability to elicit an antidepressant response in mammals. […] In the tetrabenazine induced ptosis assay, male mice (Charles River, CD-1), weighing 20 to 39 g, are used in test groups of five animals. Test compounds are dissolved, or suspended with 1 drop of Tween-80, in distilled water and administered to the animals in volumes of 10 cc per kg of body weight. Tetrabenazine methanesulfonate (76.78% as the free base) is dissolved in distilled water and the concentration of the solution is adjusted so that the dose, administered intraperitoneally (i.p.) to the animals, is 40 mg of tetrabenazine base per kg of animal body weight. The test compound is administered intraperitoneally (i.p.) or perorally (p.o.) to the subject animals, and the tetrabenazine solution is administered 30 minutes or 60 minutes, respectively, thereafter. […] The subject animals are placed in individual plastic containers of the size 26.7 cm x 20.3 cm x 15.2 cm (10.1/2" x 8" x 6") thirty (i.p.) and sixty minutes (p.o.) after administration of the tetrabenazine solution, and one minute thereafter, the animals scored for ptosis on the following scale: [table] […] The results are discarded and the test is repeated, if the control score is determined to be less than 17. […]

Assay [2] shares this test system. Description: supramaximal electroshock (SES) assay. The note with it: Mus musculus, ip, protection against extensor tonus after electroshock, read-out: Anticonvulsant Activity SES ED₅₀. On the procedure: (§1) The compounds of this invention are useful as anticonvulsants due to their anticonvulsant activity in mammals. Anticonvulsant activity is measured in male mice using the supramaximal electroshock (SES) assay described in Arch. Int. Pharmacodyn. 92, pp. 97-107, (1952) and the metrazol lethality assay (MTZ) described in J. Pharmacol. Exp. Ther., 81, 402 (1944).
Groups of male mice (Charles River, CD-1) weighing 18 to 30 g are employed in the SES assay. Test compounds are dissolved in distilled water, or if insoluble, suspended in water containing one drop of a surfactant, such as Tween-80. Test compounds are generally administered intraperitoneally at a dose of 10 ml of solution, or suspension, per kg of animal body weight. The output terminals of an A.C. shocker, which delivers 206 volts rms for 300 msec, are placed across the animals' eyes, an electrode paste coating assuring contact of the terminals with the eyes. The test compound is administered and thereafter the subject animals are shocked.
Protection is expressed as normalized percent inhibition relative to vehicle control. [formula] A time response is carried out using 6 animals per group. Animals are tested at 30, 60 and 120 minutes post drug. Additional time periods are tested if indicated by previous tests. A dose range determination is generally reserved for those compounds which inhibit convulsions by greater than about 45-55% at the screening dose employed at the time the test was performed. When the peak activity time has been determined, a dose response is initiated, using 10 animals per group at that time period.
For orientation: The maximal electroshock test induces tonic seizures with an electrical stimulus.

For assay [3] the test system is unchanged. Description: Metrazol lethality assay (MTZ). The note with it: Mus musculus, po, protection against Metrazol lethality, read-out: Anticonvulsant Activity MTZ ED₅₀. As for the experimental part: as §1
Groups of male mice (Charles River, CD-1), weighing 18 to 30 grams are employed in the Metrazol lethality assay. Test compounds are dissolved in distilled water or if insoluble, suspended in water, to which a surfactant, such as Tween-80 is added. The test compounds are administered orally, the administered dose being dissolved or suspended in 10 ml of solution or suspension per kg of animal body weight. Control aminals (2 mice/group) receive water or water and Tween-80, i.e., the vehicle for administration of the test compound. Metrazol (pentylenetetrazol) is dissolved in water (concentration 225 mg of Metrazol/10 ml of solution), and the solution is administered subcutaneously to groups of five animals each at one or more time intervals of 15, 30, 60, 90, or 120 minutes after administration of the test compound. The number of animal alive 15 minutes after treatment with Metrazol is determined and recorded. The following formula is employed to calculate the percent protection against Metrazol lethality. [formula]
A dose range determination is performed by substantially the same procedure as the time response determination. In the dose range determination, five groups of 10 animals per group are employed. This determination is generally reserved for those compounds which protect against lethality by greater than 70% at the screening dose employed.

Assay [4] deals with spontaneous hypertensive rat. Description: antihypertensive activity, indirect tail cuff method (SHR). The conditions noted are these: 50 mg/kg p.o. for three days, measured on the third day, decrease in mean arterial blood pressure. As for the experimental part: In this procedure a group of five animals is treated orally for three days with the test compound in relation to a control group of the same number. The drop in blood pressure is measured on the third day following administration. […]

As to `CNC(=O)N1CCC(Oc2c(F)c(F)c(F)c(F)c2F)CC1` [Example 1, 1-[(N-Methylamino)carbonyl]-4-(2,3,4,5,6-pentafluorophenoxy)piperidine], the ED50 in assay [1] was 11.3 mg/kg; in assay [2], 62.5 mg/kg; in assay [3], 35.9 mg/kg.
Take `NC(=O)N1CCC(Oc2c(F)c(F)c(F)c(F)c2F)CC1` [Example 7, 1-Aminocarbonyl-4-(2,3,4,5,6-pentafluorophenoxy)piperidine]: the “mm dec. in blood pressure at 50 mg/kg p.o.” value in assay [4] is 39 mm Hg.
For `CC(=O)N1CCC(Oc2c(F)c(F)c(F)c(F)c2F)CC1` [Example 6, 1-Acetyl-4-(2,3,4,5,6-pentafluorophenoxy)piperidine], the “mm dec. in blood pressure at 50 mg/kg p.o.” value in assay [4] stood at 36 mm Hg.
For `CN(C)CCC=C1c2ccccc2CCc2ccccc21` [Amitriptyline, reference compound], the ED50 in assay [1] is 1.5 mg/kg.
On to `N=C(N)NCCN1CCCCCCC1` [Guanethidine, reference compound], for which, in assay [4], the “mm dec. in blood pressure at 50 mg/kg p.o.” value was 20 mm Hg.
For the molecule `CCC1(c2ccccc2)C(=O)NC(=O)NC1=O` [Phenobarbital, reference compound], the ED50 turned out to be 8.4 mg/kg in assay [2] and 16.9 mg/kg in assay [3].
Taken in the same sequence, the figures for `CN(C)C(=O)N1CCC(Oc2c(F)c(F)c(F)c(F)c2F)CC1` [Example 2, 1-[(N,N-Dimethylamino)carbonyl]-4-(2,3,4,5,6-pentafluorophenoxy)piperidine] were 50.2 mg/kg and 40.4 mg/kg.
